pEC50: −log10 of the molar value. Where “and” joins values, the source holds several entries; their conditions need not be identical. Equal entries are not always repeated. Entries after “also recorded” stand apart in the source; their conditions may differ. Where two headings read alike, the source gives them in different places.
Tests used:
human D5 receptor = target: T1, human D5 receptor (Homo sapiens, UniProt P21918); experiment: cAMP response in hD5 CHO cells; assay type: cell-based
T1 construct: host or cells: CHO
T1 sequence (P21918 whole entry): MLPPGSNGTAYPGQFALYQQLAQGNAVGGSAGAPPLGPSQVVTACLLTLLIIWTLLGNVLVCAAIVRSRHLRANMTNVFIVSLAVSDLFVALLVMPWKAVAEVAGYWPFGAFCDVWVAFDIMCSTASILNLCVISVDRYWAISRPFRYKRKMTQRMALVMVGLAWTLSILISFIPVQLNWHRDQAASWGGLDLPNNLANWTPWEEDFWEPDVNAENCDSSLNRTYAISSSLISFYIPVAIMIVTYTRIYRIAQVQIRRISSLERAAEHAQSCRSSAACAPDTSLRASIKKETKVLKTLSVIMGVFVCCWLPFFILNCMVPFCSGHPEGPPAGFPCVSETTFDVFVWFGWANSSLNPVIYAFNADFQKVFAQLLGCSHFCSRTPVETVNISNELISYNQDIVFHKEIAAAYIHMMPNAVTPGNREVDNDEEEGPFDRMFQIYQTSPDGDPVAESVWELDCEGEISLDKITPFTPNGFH
Experimental: A Chinese hamster ovary (CHO) cell line expressing the human D5 receptor was purchased from DiscoveRx (Fremont, CA) (product no. 92-1043). The hD5 assay was performed in the same way as the hD1 assay except that the EC20 concentration of dopamine was 2 nM.

human D1 receptor [1] = target: T2, human D1 receptor (Homo sapiens, UniProt P21728); experiment: cAMP response in HEK293 cells stably expressing the human D1 receptor; assay type: cell-based; conditions: for pEC50: hD1 HEK293
T2 sequence (P21728 whole entry): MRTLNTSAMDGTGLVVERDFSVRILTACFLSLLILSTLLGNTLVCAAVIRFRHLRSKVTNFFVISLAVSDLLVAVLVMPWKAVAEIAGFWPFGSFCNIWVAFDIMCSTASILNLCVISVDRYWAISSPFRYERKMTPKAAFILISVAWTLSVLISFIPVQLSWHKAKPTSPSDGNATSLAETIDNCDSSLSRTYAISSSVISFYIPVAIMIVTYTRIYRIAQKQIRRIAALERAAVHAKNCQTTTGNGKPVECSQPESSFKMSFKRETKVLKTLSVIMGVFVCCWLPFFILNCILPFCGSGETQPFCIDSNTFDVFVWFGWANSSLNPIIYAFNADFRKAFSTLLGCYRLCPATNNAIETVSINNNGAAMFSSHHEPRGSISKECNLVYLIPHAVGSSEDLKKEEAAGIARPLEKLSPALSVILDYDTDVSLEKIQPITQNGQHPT

hD1 mice = test system: hD1 mice; design: method as in Bruns et al., submitted for publication; conditions: reserpine pretreatment; ref Bruns et al., submitted for publication; cited from earlier work
β3 receptor = β3 receptor (Homo sapiens, UniProt P13945); experiment: β3 cAMP assay (DiscoveRx); assay type: cell-based; conditions: potentiator, agonist and antagonist mode, up to 10 µM
Sequence of β3 receptor (P13945 whole entry): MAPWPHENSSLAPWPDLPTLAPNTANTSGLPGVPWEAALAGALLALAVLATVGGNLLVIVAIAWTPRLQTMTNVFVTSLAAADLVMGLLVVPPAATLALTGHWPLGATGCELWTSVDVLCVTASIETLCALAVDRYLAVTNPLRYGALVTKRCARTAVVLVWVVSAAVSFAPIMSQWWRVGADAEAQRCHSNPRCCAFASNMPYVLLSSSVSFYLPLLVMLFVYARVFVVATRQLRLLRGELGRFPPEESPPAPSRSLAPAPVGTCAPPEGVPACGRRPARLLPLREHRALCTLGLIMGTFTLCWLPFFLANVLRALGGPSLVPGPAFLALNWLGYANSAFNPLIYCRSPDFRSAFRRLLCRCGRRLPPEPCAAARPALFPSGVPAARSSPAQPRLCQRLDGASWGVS
Experimental: The D2, β1, β2, β3, and 5HT6 cAMP assays were performed at DiscoveRx using the protocols described on their website (www.discoverx.com).

human D1 receptor [2] = target: T2, human D1 receptor; experiment: D1 receptor internalization (PathHunter, DiscoveRx)
[3] = with EC20 dopamine, 0% = EC20 dopamine response, 100% = maximum dopamine response

Structure (SMILES): C[C@H]1c2cccc(C(C)(C)O)c2C[C@H](CO)N1C(=O)Cc1c(Cl)cccc1Cl [DETQ, 2-(2,6-dichlorophenyl)-1-((1S,3R)-3-(hydroxymethyl)-5-(2-hydroxypropan-2-yl)-1-methyl-3,4-dihydroisoquinolin-2(1H)-yl)ethan-1-one]
- Selectivity for the D1 receptor over D5 (human D5 receptor): > 1000 fold
- Activity at human D5 receptor (human D5 receptor; potentiator mode, up to 25 µM): inactive
- Relative potency (potentiator mode RA divided by agonist mode RA) (human D1 receptor [1]): 43 fold and 42.8 fold
- Maximum overall sensitization to dopamine (α times β) (human D1 receptor [1]; 20.8 × 1.22): 25.4 fold
- Emax (human D1 receptor [1]; HEK293, human D1, comparison with rat D1, read-out: Maximum response relative to that of dopamine): 98.6%
- Rightward shift of EC50 in the absence of dopamine (human D1 receptor [1]; agonist vs potentiator mode): 6 fold
- α-factor (maximum leftward shift of the cAMP response to dopamine) (human D1 receptor [1]; allosteric Schild plot): 21 fold and 20.8 fold and 20.8 ± 1.9 fold
- Kb (human D1 receptor [1]; dopamine curve-shift, cAMP, read-out: KB (allosteric Schild plot)): 26 nM
- pEC50 (human D1 receptor [1]; in the presence of an EC20 concentration of dopamine (12 nM), read-out: EC50, cAMP, potentiator mode): 8.24 and 8.23
- Top, cAMP, potentiator mode (human D1 receptor [1]; with 12 nM dopamine, % of window between EC20 dopamine and maximum dopamine response): 95.2%
- RA, cAMP agonist mode (human D1 receptor [1]; without dopamine): 0.38
- Top, cAMP, agonist mode (human D1 receptor [1]; without dopamine, % of maximum response to dopamine): 11.6%
- pEC50 (human D1 receptor [1]; without dopamine, read-out: EC50, cAMP, agonist mode): 7.52
- Response in hD1 mice depleted of dopamine by reserpine (hD1 mice): did not reverse hypokinesia; also recorded: absent
- Activity at β3 receptor (β3 receptor): inactive
- Pathway Preference cAMP/Internalization (human D1 receptor [2]; RA for cAMP divided by RA for internalization): 13.1
- Relative Preference DETQ/A-77636 (human D1 receptor [2]; pathway preference of DETQ divided by that of A-77636): 2.0 ± 1.4 and 1.97
- RA, Internalization (human D1 receptor [2]; top divided by EC50, with 407 nM dopamine): 1.25
- Bottom, D1 receptor internalization (human D1 receptor [2]; [3]): 5.0%
- Top, D1 receptor internalization (human D1 receptor [2]; [3]): 55.8%
